{"source": "patent US20250073301A1", "about": "“Delayed Release Compositions of Linaclotide” (Ironwood Pharmaceuticals, Inc., priority 2013, published 2025)", "origin": "cited, not measured here", "details": "human volunteers, oral linaclotide", "note": "Ends that are not written are not given here."}
{"sequence": "CCEYCCNPACTGCY (cysteine pairing not given here) [linaclotide]", "values": [{"measurement": "oral dose found in feces", "result": "about 5%"}]}
